The values below come from ChEMBL document CHEMBL2034968, “Discovery of novel urea-based hepatitis C protease inhibitors with high potency against protease-inhibitor-resistant mutants” (J Med Chem, 2012).

The test system of assay [1] is Hepatitis C virus. The assay can be described thus: Resistance index, ratio of EC50 for Hepatitis C virus subtype 1b harboring protease D168V mutant to EC50 for wild type Hepatitis C virus subtype 1b. The assay is classed as functional, Hepacivirus hominis, genotype 1b.
Assay [2] relates to Hepatitis C virus. The assay can be described thus: Antiviral activity against wild type Hepatitis C virus subtype 1b by transient replicon assay. The assay is classed as functional, organism-based, Hepacivirus hominis. The following applies: genotype 1b.
Assay [3] concerns Hepatitis C virus. The assay can be described thus: Antiviral activity against Hepatitis C virus subtype 1b harboring protease D168V mutant by transient replicon assay. The assay is classed as functional, organism-based, Hepacivirus hominis. The following applies: genotype 1b. For orientation: Replicon systems follow genome replication, usually without infectious particles.
For assay [4], the system named is Hepatitis C virus. Nature of the assay: Antiviral activity against Hepatitis C virus subtype 1b harboring protease R155K mutant by transient replicon assay. The assay is classed as functional, organism-based, Hepacivirus hominis. The following applies: genotype 1b.
Assay [5] concerns Hepatitis C virus. The assay can be described thus: Resistance index, ratio of EC50 for Hepatitis C virus subtype 1b harboring protease D168A mutant to EC50 for wild type Hepatitis C virus subtype 1b. The assay is classed as functional, Hepacivirus hominis, genotype 1b.
Assay [6] relates to Hepatitis C virus. The assay can be described thus: Antiviral activity against Hepatitis C virus subtype 1a by stable replicon assay. The assay is classed as functional, organism-based, Hepacivirus hominis.
Assay [7] deals with Hepatitis C virus. The assay can be described thus: Antiviral activity against Hepatitis C virus subtype 1b harboring protease A156S mutant by transient replicon assay. The assay is classed as functional, organism-based, Hepacivirus hominis. The following applies: genotype 1b.
In assay [8] the test system is Hepatitis C virus. Nature of the assay: Antiviral activity against Hepatitis C virus subtype 1b by stable replicon assay. The following applies: genotype 1b. The assay is classed as functional, organism-based, Hepacivirus hominis.
For assay [9], the system named is Hepatitis C virus. The assay can be described thus: Resistance index, ratio of EC50 for Hepatitis C virus subtype 1b harboring protease R155K mutant to EC50 for wild type Hepatitis C virus subtype 1b. The assay is classed as functional, Hepacivirus hominis, genotype 1b.
The subject of assay [10] is Hepatitis C virus. Nature of the assay: Antiviral activity against Hepatitis C virus subtype 1b harboring protease A156T mutant by transient replicon assay. The assay is classed as functional, organism-based, Hepacivirus hominis. The following applies: genotype 1b.
Assay [11] has as its system Hepatitis C virus. The assay can be described thus: Antiviral activity against Hepatitis C virus subtype 1b harboring protease D168A mutant by transient replicon assay. The assay is classed as functional, organism-based, Hepacivirus hominis. The following applies: genotype 1b.
The subject of assay [12] is Hepatitis C virus. Nature of the assay: Antiviral activity against Hepatitis C virus subtype 1b harboring protease A156V mutant by transient replicon assay. The assay is classed as functional, organism-based, Hepacivirus hominis. The following applies: genotype 1b.
The nature of assay [13]: Inhibition of HCV 1a protease 1a domain. Set-up: species or system Hepacivirus hominis.

`COc1ccc2c(O[C@@H]3C[C@H]4C(=O)N[C@]5(C(=O)NS(=O)(=O)C6CC6)C[C@H]5/C=C\CCCCC[C@H](NC(=O)N(C)C(C)(C)C)C(=O)N4C3)cc(-c3nc(C4CC4)cs3)nc2c1C`: the “Ratio EC50” value in the assay on Hepatitis C virus [1], with Hepatitis C virus [5] and with Hepatitis C virus [9] was less than 1000 throughout. In addition, the half-maximal effective concentration (EC50) in the assay with Hepatitis C virus [2] was found to be 0.2 nM; in the assay with Hepatitis C virus [3] it was 84 nM; with Hepatitis C virus [4] it was 28 nM; in the assay on Hepatitis C virus [6], 1 nM; with Hepatitis C virus [7] it was 0.4 nM; in the assay with Hepatitis C virus [8] it was 1 nM. Also, the values for the concentration for a half-maximal effect (EC50) in the assay with Hepatitis C virus [10], in the assay on Hepatitis C virus [11] and in the assay with Hepatitis C virus [12] were 7 nM, 71 nM and 9 nM, respectively.

`CCN(C(=O)N[C@H]1CCCCC/C=C\[C@@H]2C[C@@]2(C(=O)NS(=O)(=O)C2CC2)NC(=O)[C@@H]2C[C@@H](Oc3cc(-c4nc(C5CC5)cs4)nc4c(C)c(OC)ccc34)CN2C1=O)C(C)C`: the “Ratio EC50” value with Hepatitis C virus [1], in the assay with Hepatitis C virus [5] and in the assay on Hepatitis C virus [9] was less than 1000 throughout. Further, the half-maximal effective concentration (EC50) in the assay with Hepatitis C virus [2] was 0.2 nM; in the assay with Hepatitis C virus [3] it was 151 nM; in the assay on Hepatitis C virus [4], 16 nM; with Hepatitis C virus [6], 0.4 nM; with Hepatitis C virus [7], 0.7 nM; in the assay on Hepatitis C virus [8] it was 0.4 nM. Further, the figures for the 50% effective concentration (EC50) in the assay with Hepatitis C virus [10], with Hepatitis C virus [11] and in the assay with Hepatitis C virus [12] were 8 nM, 50 nM and 24 nM, respectively. Half-maximal inhibition in assay [13] (IC50) required 1 nM.

On to `COc1ccc2c(O[C@@H]3C[C@H]4C(=O)N[C@]5(C(=O)NS(=O)(=O)C6CC6)C[C@H]5/C=C\CCCCC[C@H](NC(=O)N(C(C)C)C(C)C)C(=O)N4C3)cc(-c3nc(C4CC4)cs3)nc2c1C`, for which the “Ratio EC50” value in the assay on Hepatitis C virus [1], in the assay with Hepatitis C virus [5] and in the assay with Hepatitis C virus [9] was less than 1000 each time. The EC50 amounted to 0.2 nM in the assay on Hepatitis C virus [2]; 105 nM in the assay on Hepatitis C virus [3]; 46 nM with Hepatitis C virus [4]; 0.7 nM in the assay with Hepatitis C virus [6]; 0.6 nM in the assay with Hepatitis C virus [7]; 0.9 nM with Hepatitis C virus [8]. In addition, the figures for the concentration for a half-maximal effect (EC50) with Hepatitis C virus [10], in the assay with Hepatitis C virus [11] and in the assay on Hepatitis C virus [12] were 11 nM, 64 nM and 43 nM, respectively. In assay [13], the midpoint of inhibition, the IC50, lay at 2 nM.

For `COc1ccc2c(O[C@@H]3C[C@H]4C(=O)N[C@]5(C(=O)NS(=O)(=O)C6CC6)C[C@H]5/C=C\CCCCC[C@H](NC(=O)N(C)C(C)C)C(=O)N4C3)cc(-c3nc(C4CC4)cs3)nc2c1C`, the “Ratio EC50” value with Hepatitis C virus [1], with Hepatitis C virus [5] and in the assay on Hepatitis C virus [9] was less than 1000 each time. The EC50 with Hepatitis C virus [2] was found to be 0.04 nM; with Hepatitis C virus [3] it was 37 nM; in the assay on Hepatitis C virus [4], 5 nM; with Hepatitis C virus [6] it was 0.3 nM; in the assay on Hepatitis C virus [7] it was 0.05 nM; in the assay with Hepatitis C virus [8] it was 0.4 nM. Moreover, the EC50 with Hepatitis C virus [10] was 2 nM; in the assay on Hepatitis C virus [11], 17 nM; in the assay on Hepatitis C virus [12], 5 nM. Also, in assay [13], the IC50 was determined as 0.8 nM.

`CCN(CC)C(=O)N[C@H]1CCCCC/C=C\[C@@H]2C[C@@]2(C(=O)NS(=O)(=O)C2CC2)NC(=O)[C@@H]2C[C@@H](Oc3cc(-c4nc(C(C)C)cs4)nc4c(C)c(OC)ccc34)CN2C1=O`: the EC50 in the assay on Hepatitis C virus [2] was 0.1 nM; in the assay with Hepatitis C virus [3], 131 nM; in the assay on Hepatitis C virus [4] it was 15 nM; in the assay on Hepatitis C virus [6], 0.9 nM; in the assay on Hepatitis C virus [7], 0.5 nM; with Hepatitis C virus [8] it was 0.7 nM. Also, the 50% effective concentration (EC50) was determined as 2 nM in the assay on Hepatitis C virus [10], 56 nM with Hepatitis C virus [11] and 8 nM with Hepatitis C virus [12]. Moreover, half-maximal inhibition in assay [13] (IC50) was put at 1 nM.

For the compound `COc1ccc2c(O[C@@H]3C[C@H]4C(=O)N[C@]5(C(=O)NS(=O)(=O)C6CC6)C[C@H]5/C=C\CCCCC[C@H](NC(=O)N5CCC(CC(=O)O)CC5)C(=O)N4C3)cc(-c3nc(C(C)C)cs3)nc2c1C`, the EC50 in the assay on Hepatitis C virus [2] was 0.1 nM; in the assay on Hepatitis C virus [3] it was 161 nM; with Hepatitis C virus [4], 21 nM; in the assay with Hepatitis C virus [6] it was 2.2 nM; in the assay on Hepatitis C virus [7], 0.2 nM; with Hepatitis C virus [8] it was 0.8 nM. Also, the EC50 came to 1 nM in the assay with Hepatitis C virus [10], 7 nM with Hepatitis C virus [11] and 3 nM with Hepatitis C virus [12]. The IC50 in [13] stood at 0.9 nM.

For the compound `COc1ccc2c(O[C@@H]3C[C@H]4C(=O)N[C@]5(C(=O)NS(=O)(=O)C6CC6)C[C@H]5/C=C\CCCCC[C@H](NC(=O)N5C[C@@H](C)O[C@@H](C)C5)C(=O)N4C3)cc(-c3nc(C(C)C)cs3)nc2c1C`, the 50% effective concentration (EC50) in the assay with Hepatitis C virus [2] was 0.7 nM; in the assay with Hepatitis C virus [3] it was 2090 nM; in the assay on Hepatitis C virus [4] it was 233 nM; in the assay on Hepatitis C virus [6], 10.6 nM; with Hepatitis C virus [7], 1 nM; in the assay with Hepatitis C virus [8] it was 1.2 nM. For the same compound, the EC50 in the assay with Hepatitis C virus [10] was 23 nM; in the assay on Hepatitis C virus [11] it was 423 nM; in the assay on Hepatitis C virus [12], 69 nM. The same compound returned an IC50 in [13] of 2 nM.

As to `COc1ccc2c(O[C@@H]3C[C@H]4C(=O)N[C@]5(C(=O)NS(=O)(=O)C6CC6)C[C@H]5/C=C\CCCCC[C@H](NC(=O)N5CCOCC5)C(=O)N4C3)cc(-c3nc(C(C)C)cs3)nc2c1C`, the EC50 with Hepatitis C virus [2] came to 0.01 nM; in the assay on Hepatitis C virus [3], 33 nM; in the assay with Hepatitis C virus [4] it was 4 nM; in the assay with Hepatitis C virus [6], 0.3 nM; in the assay on Hepatitis C virus [7] it was 0.03 nM; with Hepatitis C virus [8] it was 0.5 nM. In addition, the EC50 was 0.2 nM with Hepatitis C virus [10], 17 nM in the assay with Hepatitis C virus [11] and 2 nM in the assay with Hepatitis C virus [12]. The compound also registered an IC50 in assay [13] of 2 nM.

Consider `COc1ccc2c(O[C@@H]3C[C@H]4C(=O)N[C@]5(C(=O)O)C[C@H]5/C=C\CCCCC[C@H](NC(=O)OC5CCCC5)C(=O)N4C3)cc(-c3csc(NC(C)C)n3)nc2c1` [CILUPREVIR], for which the concentration giving a half-maximal response (EC50) in the assay on Hepatitis C virus [2] worked out at 1 nM; in the assay on Hepatitis C virus [3], 438 nM; in the assay with Hepatitis C virus [4], 241 nM; in the assay with Hepatitis C virus [6], 2.2 nM; in the assay on Hepatitis C virus [7], 3 nM; in the assay on Hepatitis C virus [8], 0.5 nM. Also, the EC50 in the assay with Hepatitis C virus [10] amounted to 604 nM; in the assay on Hepatitis C virus [11] it was 205 nM; in the assay with Hepatitis C virus [12], 627 nM. This compound also showed a half-maximal inhibitory concentration (IC50) in [13] of 2 nM.

As to `COc1ccc2c(O[C@@H]3C[C@H]4C(=O)N[C@]5(C(=O)NS(=O)(=O)C6CC6)C[C@H]5/C=C\CCCCC[C@H](NC(=O)N5CCS(=O)(=O)CC5)C(=O)N4C3)cc(-c3nc(C(C)C)cs3)nc2c1C`, the EC50 in the assay with Hepatitis C virus [2] worked out at 0.4 nM; in the assay on Hepatitis C virus [3], 1420 nM; with Hepatitis C virus [4], 115 nM; with Hepatitis C virus [6], 2.3 nM; in the assay with Hepatitis C virus [7] it was 0.3 nM; in the assay on Hepatitis C virus [8], 0.5 nM. Further, the EC50 in the assay with Hepatitis C virus [10] came to 5 nM; with Hepatitis C virus [11], 372 nM; in the assay with Hepatitis C virus [12], 38 nM. This compound yielded a concentration for half-maximal inhibition (IC50) in [13] of 2 nM.

In the case of `COc1ccc2c(O[C@@H]3C[C@H]4C(=O)N[C@]5(C(=O)NS(=O)(=O)C6CC6)C[C@H]5/C=C\CCCCC[C@H](NC(=O)N5CCCC5)C(=O)N4C3)cc(-c3nc(C(C)C)cs3)nc2c1C`, the EC50 with Hepatitis C virus [2] stood at 0.1 nM; with Hepatitis C virus [3] it was 200 nM; in the assay with Hepatitis C virus [4] it was 15 nM; in the assay with Hepatitis C virus [6], 0.4 nM; in the assay on Hepatitis C virus [7], 0.2 nM; in the assay with Hepatitis C virus [8], 0.4 nM. Besides, the concentration giving a half-maximal response (EC50) in the assay on Hepatitis C virus [10] worked out at 2 nM; in the assay on Hepatitis C virus [11] it was 86 nM; in the assay on Hepatitis C virus [12], 9 nM. The compound also yielded an IC50 in [13] of 4 nM.

The term EC50 denotes the concentration giving half of the maximal effect. A higher EC50 goes with a need for much substance. The IC50 is the concentration that inhibits the measured activity by half.
